Values joined by “and” are separate entries in the source; they are usually repeats but may differ in a detail not shown here. Identical values can stand only once. Like-named read-outs stand apart in the source and are kept apart here.
Tests used:
[1] = test system: rats; test: MTD toxicity test in rats; conditions: rat, in vivo, 300 mg/kg
[2] = MTD toxicity test in rats; conditions: rat, in vivo
[3] = Ames assay
[4] = biological target: PDGFRα (Homo sapiens (Human), UniProt P16234); test: Kinase inhibition, Mobility-Shift Assay; assay type: biochemical
[5] = biological target: VEGFR-1 (FLT1) (Homo sapiens (Human), UniProt P17948); test: Kinase inhibition, Mobility-Shift Assay; assay type: biochemical
[6] = biological target: C-MET (Homo sapiens (Human), UniProt P08581); test: Kinase inhibition, Mobility-Shift Assay; assay type: biochemical
Sequence of C-MET (P08581 25-1390): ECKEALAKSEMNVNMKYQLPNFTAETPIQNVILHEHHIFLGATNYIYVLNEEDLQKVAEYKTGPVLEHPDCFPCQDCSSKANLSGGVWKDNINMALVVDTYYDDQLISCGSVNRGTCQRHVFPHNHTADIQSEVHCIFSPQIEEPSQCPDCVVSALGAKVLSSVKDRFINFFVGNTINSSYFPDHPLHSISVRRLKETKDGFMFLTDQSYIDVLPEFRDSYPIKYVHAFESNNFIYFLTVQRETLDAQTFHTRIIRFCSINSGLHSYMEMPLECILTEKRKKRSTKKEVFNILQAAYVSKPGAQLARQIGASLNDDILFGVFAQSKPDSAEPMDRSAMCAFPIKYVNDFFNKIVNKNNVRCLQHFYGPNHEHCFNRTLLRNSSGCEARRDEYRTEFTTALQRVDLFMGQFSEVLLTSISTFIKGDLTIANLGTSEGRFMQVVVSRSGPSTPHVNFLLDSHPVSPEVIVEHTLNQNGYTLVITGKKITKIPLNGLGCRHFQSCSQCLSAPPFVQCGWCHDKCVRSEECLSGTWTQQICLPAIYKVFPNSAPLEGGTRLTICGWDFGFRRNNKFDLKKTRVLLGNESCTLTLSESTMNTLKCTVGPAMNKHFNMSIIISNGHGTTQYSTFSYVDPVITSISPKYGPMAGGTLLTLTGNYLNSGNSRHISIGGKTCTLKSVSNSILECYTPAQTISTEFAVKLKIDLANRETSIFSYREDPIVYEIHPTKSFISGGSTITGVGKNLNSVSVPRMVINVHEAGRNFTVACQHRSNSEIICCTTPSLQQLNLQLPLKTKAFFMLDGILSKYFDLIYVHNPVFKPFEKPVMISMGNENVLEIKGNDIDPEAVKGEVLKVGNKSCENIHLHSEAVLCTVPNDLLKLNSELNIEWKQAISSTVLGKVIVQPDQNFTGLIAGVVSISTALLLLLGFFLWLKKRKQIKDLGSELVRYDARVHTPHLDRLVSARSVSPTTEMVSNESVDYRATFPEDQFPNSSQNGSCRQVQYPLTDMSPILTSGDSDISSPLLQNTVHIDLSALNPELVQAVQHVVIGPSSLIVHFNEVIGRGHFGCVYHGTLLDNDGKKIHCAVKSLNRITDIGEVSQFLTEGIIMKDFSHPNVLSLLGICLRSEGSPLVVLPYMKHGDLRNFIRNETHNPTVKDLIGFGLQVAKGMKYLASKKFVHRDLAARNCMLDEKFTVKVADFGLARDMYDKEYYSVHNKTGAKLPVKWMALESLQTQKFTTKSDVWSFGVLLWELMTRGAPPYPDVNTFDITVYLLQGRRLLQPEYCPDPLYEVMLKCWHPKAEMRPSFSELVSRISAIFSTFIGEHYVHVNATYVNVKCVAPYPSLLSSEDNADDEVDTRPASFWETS

[7] = biological target: EGFR (Homo sapiens (Human), UniProt P00533); test: Kinase inhibition, Mobility-Shift Assay; assay type: biochemical
[8] = test system: bladder cancer cell line (RT112/84); test: Tumor cell proliferation inhibition (CTG, 72 h); assay type: cell-based; conditions: Homo sapiens
[9] = biological target: FGFR2 (Homo sapiens (Human), UniProt P21802); test: Kinase inhibition, Mobility-Shift Assay; assay type: biochemical
Sequence of FGFR2 (P21802 22-821): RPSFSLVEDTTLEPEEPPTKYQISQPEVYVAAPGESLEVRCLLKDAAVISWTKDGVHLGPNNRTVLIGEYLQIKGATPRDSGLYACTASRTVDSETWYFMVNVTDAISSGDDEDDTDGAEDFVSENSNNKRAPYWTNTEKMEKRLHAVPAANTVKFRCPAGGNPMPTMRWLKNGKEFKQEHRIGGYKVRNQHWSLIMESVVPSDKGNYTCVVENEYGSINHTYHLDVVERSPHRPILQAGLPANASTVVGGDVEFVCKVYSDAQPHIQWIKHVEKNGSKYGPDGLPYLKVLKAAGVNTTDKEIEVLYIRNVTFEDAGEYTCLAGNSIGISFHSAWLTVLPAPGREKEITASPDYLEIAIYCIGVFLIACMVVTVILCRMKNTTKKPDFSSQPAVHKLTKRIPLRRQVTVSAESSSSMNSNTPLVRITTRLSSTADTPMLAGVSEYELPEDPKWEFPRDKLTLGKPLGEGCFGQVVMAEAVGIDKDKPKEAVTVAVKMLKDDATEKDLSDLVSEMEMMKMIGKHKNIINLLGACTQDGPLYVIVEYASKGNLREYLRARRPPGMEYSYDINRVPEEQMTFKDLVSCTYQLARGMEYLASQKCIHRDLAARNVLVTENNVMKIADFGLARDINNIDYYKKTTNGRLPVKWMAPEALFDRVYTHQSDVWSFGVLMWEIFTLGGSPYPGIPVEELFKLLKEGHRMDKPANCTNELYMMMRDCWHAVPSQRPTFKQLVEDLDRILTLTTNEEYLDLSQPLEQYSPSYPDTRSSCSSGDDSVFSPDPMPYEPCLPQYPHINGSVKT

[10] = biological target: RET (Homo sapiens (Human), UniProt P07949); test: Kinase inhibition, Mobility-Shift Assay; assay type: biochemical
[11] = biological target: hERG potassium channels (Homo sapiens (Human), UniProt Q12809); test: hERG in vitro inhibition, whole-cell patch clamp; assay type: cell-based; conditions: in vitro hERG current inhibition
[12] = biological target: VEGFR-3 (FLT4) (Homo sapiens (Human), UniProt P35916); test: Kinase inhibition, Mobility-Shift Assay; assay type: biochemical
[13] = test system: thyroid cancer cell line (TT); test: Tumor cell proliferation inhibition (CTG, 72 h); assay type: cell-based
[14] = biological target: ABL (Homo sapiens (Human), UniProt P00519); test: Kinase inhibition, Mobility-Shift Assay; assay type: biochemical
[15] = test system: hepatocellular carcinoma cell line (Hep3B 2.1-7); test: Tumor cell proliferation inhibition (CTG, 72 h); assay type: cell-based; conditions: Homo sapiens; Hep3B 2.1-7 cells, class; read-out: Hep3B 2.1-7 range of activity (IC50)
[16] = test system: rats; test: 28-day GLP toxicity test; assay type: in vivo; conditions: 50, 100, 150 mg/kg once a day by gavage, 28 days
Procedure: The 28-day GLP toxicity test also used healthy rats at three doses (50 mg/kg, 100 mg/kg, 150 mg/kg), and the three groups of rats were administered once a day by gavage, and the toxicity of the test substance was evaluated by observing the toxicity response of the experimental animals for 28 consecutive days. […] Therefore, the preferred compound “III-01” designed and synthesized by the present invention not only has better inhibitory activity, but also has better safety and drug-forming properties, which is worthy of further clinical trials and application.

[17] = biological target: VEGFR-2 (KDR) (Homo sapiens (Human), UniProt P35968); test: Kinase inhibition, Mobility-Shift Assay; assay type: biochemical
Sequence of VEGFR-2 (KDR) (P35968 20-1356): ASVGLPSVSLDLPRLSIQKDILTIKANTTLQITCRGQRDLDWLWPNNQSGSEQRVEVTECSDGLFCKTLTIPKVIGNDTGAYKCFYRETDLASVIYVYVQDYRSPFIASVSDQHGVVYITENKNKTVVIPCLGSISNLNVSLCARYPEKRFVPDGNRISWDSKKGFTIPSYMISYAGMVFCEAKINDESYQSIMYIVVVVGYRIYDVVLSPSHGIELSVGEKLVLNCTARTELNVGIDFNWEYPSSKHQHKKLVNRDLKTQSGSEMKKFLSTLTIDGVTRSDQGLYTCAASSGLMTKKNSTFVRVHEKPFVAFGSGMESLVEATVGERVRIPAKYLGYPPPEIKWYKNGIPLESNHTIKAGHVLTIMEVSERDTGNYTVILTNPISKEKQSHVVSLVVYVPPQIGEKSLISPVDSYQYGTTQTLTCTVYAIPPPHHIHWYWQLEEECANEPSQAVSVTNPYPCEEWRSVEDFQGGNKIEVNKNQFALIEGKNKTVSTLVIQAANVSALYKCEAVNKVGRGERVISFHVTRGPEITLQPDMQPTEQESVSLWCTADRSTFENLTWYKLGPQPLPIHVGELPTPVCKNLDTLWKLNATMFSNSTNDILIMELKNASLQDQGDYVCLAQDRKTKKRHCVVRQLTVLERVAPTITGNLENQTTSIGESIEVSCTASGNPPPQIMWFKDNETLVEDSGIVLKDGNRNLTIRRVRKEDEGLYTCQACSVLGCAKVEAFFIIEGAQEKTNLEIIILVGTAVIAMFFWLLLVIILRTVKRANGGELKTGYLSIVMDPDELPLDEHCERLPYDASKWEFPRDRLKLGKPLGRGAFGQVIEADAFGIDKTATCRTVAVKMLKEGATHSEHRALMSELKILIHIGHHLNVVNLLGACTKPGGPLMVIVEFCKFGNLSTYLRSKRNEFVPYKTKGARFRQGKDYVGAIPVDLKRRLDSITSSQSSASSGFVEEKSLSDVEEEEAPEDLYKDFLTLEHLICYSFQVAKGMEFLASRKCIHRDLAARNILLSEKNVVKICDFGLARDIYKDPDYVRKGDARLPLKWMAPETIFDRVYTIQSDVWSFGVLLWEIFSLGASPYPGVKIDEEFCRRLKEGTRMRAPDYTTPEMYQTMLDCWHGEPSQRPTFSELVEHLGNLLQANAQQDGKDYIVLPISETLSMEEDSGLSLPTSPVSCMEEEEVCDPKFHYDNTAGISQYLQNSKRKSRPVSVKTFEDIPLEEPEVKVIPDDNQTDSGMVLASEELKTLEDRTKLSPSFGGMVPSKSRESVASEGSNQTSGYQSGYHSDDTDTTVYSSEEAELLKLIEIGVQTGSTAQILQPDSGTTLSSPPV

[18] = test system: cervical cancer cell line (Hela); test: Tumor cell proliferation inhibition (CTG, 72 h); assay type: cell-based; conditions: Homo sapiens; Hela cells, class; read-out: Hela activity effect range (IC50)
[19] = test system: leukemia cell line (K562); test: Tumor cell proliferation inhibition (CTG, 72 h); assay type: cell-based; conditions: Homo sapiens; K562 cells, class; read-out: K562 activity effect range (IC50)
[20] = biological target: FGFR3 (Homo sapiens (Human), UniProt P22607); test: Kinase inhibition, Mobility-Shift Assay; assay type: biochemical; conditions: read-out: FGFR-3 IC50
Sequence of FGFR3 (P22607 23-806): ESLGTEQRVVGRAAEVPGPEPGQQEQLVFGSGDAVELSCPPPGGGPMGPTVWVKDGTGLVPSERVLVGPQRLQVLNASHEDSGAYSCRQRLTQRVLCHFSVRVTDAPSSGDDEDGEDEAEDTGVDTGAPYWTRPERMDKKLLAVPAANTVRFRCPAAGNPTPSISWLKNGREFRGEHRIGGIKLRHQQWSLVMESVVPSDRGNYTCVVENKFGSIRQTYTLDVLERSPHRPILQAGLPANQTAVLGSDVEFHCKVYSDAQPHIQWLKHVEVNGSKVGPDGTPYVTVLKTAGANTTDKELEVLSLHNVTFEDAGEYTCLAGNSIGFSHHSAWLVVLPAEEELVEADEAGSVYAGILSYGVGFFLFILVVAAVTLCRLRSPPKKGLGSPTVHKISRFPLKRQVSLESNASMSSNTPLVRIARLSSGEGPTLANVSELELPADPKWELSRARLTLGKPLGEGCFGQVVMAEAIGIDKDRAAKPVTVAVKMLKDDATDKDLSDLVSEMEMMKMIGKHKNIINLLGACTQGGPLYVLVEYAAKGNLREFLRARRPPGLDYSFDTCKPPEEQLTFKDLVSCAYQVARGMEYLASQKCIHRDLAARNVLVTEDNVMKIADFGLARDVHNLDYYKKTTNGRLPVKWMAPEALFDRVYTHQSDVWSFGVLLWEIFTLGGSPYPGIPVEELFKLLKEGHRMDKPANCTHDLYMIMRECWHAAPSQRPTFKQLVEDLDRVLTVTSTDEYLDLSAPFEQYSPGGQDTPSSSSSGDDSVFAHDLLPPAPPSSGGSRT
Procedure: In this experiment, the inhibitory effects of small molecule inhibitors on 17 kinases were examined by using fluorescent microfluidic mobility shift assay (Mobility-Shift Assay).
2. Compounds were configured in 100% DMSO in a concentration gradient and diluted with buffer to 10% DMSO, and added to 384-well plates. Compounds starting at […] are prepared in 100% DMSO to 25 μM and diluted in a gradient of 10 concentrations, then diluted 10-fold in buffer to make an intermediate dilution of the compound containing 10% DMSO and transferred 5 μl to a 384-well plate. 3. The kinase was diluted to optimal concentration with the following buffers: 50 mM HEPES, pH 7.5, 0.00015% Brij-35, 2 mM DTT (final concentration of enzyme reaction: VEGFR-1 (FLT1): 2 nM; VEGFR-2 (KDR): 1.2 nM; VEGFR-3 (FLT4): 1.5 nM; FGFR1: 2 nM); FGFR2: 9 nM; FGFR3: 8 nM; FGFR4: 10 nM; PDGFRα: 3.5 nM; c-MET: 10 nM; RET: 7 nM; EGFR: 6 nM). Transfer 10 μl into a 384-well plate and incubate with the compounds for 10 min. 4. […] Read the conversion rate with Caliper Reader and calculate the conversion rate as suppression, formula Percent inhIcition=(max−conversion)/(max−min)*100. […]

[21] = biological target: FGFR1 (Homo sapiens (Human), UniProt P11362); test: Kinase inhibition, Mobility-Shift Assay; assay type: biochemical; conditions: read-out: FGFR-1 IC50
[22] = biological target: FGFR4 (Homo sapiens (Human), UniProt P22455); test: Kinase inhibition, Mobility-Shift Assay; assay type: biochemical
Sequence of FGFR4 (P22455 22-802): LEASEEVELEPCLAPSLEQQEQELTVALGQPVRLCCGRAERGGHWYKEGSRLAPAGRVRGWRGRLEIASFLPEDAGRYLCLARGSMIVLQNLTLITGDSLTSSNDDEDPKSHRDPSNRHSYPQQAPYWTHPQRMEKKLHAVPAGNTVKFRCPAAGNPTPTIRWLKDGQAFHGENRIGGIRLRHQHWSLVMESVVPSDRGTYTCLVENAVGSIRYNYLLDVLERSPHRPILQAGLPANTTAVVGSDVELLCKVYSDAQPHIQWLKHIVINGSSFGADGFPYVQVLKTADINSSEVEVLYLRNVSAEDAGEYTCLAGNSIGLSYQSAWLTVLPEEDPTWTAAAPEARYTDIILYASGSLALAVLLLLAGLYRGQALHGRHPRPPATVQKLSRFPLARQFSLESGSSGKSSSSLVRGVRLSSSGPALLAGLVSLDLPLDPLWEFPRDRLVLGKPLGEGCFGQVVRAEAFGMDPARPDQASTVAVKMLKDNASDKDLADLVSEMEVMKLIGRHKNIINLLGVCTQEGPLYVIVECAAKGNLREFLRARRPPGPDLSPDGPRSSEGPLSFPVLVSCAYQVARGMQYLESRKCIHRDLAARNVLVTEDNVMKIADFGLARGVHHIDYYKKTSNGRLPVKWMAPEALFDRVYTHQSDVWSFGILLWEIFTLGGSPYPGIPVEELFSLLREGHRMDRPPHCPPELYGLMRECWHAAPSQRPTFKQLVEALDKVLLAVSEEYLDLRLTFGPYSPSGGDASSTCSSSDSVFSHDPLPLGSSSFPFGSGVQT

[23] = class, read-out: C-MET range of activity (IC50)
[24] = class, read-out: EGFR range of activity (IC50)
[25] = RT112/84 bladder cancer cells, 72 h, read-out: RT112/84 (uM), inhibitory activity IC50
[26] = RT112/84 cells, class, read-out: RT112/84 range of activity (IC50)
[27] = class, read-out: FGFR2 range of activity effects (IC50)
[28] = Homo sapiens, TT cells, class, read-out: TT range of activity (IC50)
[29] = TT thyroid cancer cells, 72 h, read-out: TT (uM), inhibitory activity IC50
[30] = class, read-out: KDR activity effect range (IC50)
[31] = class, read-out: FGFR4 range of activity effects (IC50)

| Compound | IC50 [4] [nM] | IC50 [6, 23] [nM] | IC50 ([6]; read-out: C-MET IC50) [nM] | IC50 [7, 24] [nM] | IC50 ([7]; read-out: EGFR IC50) | IC50 [8, 25] [µM] | IC50 [8, 26] [µM] | IC50 [9, 27] [nM] | IC50 ([9]; read-out: FGFR-2 IC50) [nM] | IC50 [11] [nM] | IC50 [12] [nM] | IC50 [13, 28] [µM] | IC50 [13, 29] [µM] | IC50 [14] [nM] | IC50 [15] [nM] | IC50 [17, 30] [nM] | IC50 ([17]; read-out: VEGFR-2 (KDR) IC50) [nM] | IC50 [20] [nM] | IC50 [22, 31] [nM] | IC50 ([22]; read-out: FGFR-4 IC50) [nM] | also measured |
| --- | --- | --- | --- | --- | --- | --- | --- | --- | --- | --- | --- | --- | --- | --- | --- | --- | --- | --- | --- | --- | --- |
| COc1cc2nccc(Oc3c(F)cc(NC(=O)NC4CC4)c(Cl)c3F)c2cc1C(N)=O [III-01] | 7.9 | 60 to 100 | 96 | < 60 | 58 nM and 53 nM | 0.13 | < 0.2 | < 30 | 11 | > 30000 | 1.1 | < 5 | 1.5 | 68 | < 2500 | < 2 | 0.6 | 22 | < 30 | 17 | Observation at MTD dose [1]: without any abnormalities such as death; MTD ([2]; 300 mg/kg, rats, read-out: MTD toxicity dose): 300 mg/kg; MTD ([2]; rats, read-out: MTD toxicity dose): > 300 mg/kg; Ames assay [3]: negative; IC50 [5]: 3.7 nM; IC50 [10]: 2.5 nM; Autopsy results, 28-day GLP toxicity test [16]: did not reveal any abnormal changes; IC50 [18]: 5000 to 10000 nM; IC50 [19]: 5000 to 10000 nM; IC50 [21]: 14 nM |
| COc1cc2nccc(Oc3c(F)c(N(C)C)c(NC(=O)NC4CC4)c(N(C)C)c3F)c2cc1C(N)=O [III-52] | – | > 100 | – | > 100 | – | – | > 1 | > 100 | – | – | – | > 10 | – | – | > 5000 | > 10 | – | – | > 100 | – | IC50 [18]: > 10000 nM; IC50 [19]: > 10000 nM |
| COc1cc2nccc(Oc3ccc(NC(=O)NC4CC4)c(Cl)c3)c2cc1C(N)=O [Lenvatinib, reference compound] | 27 | > 100 | > 1000 | – | – | 0.29 | 0.2 to 1 | 30 to 100 | 27 | – | 3.2 | > 10 | > 10 | – | – | – | – | 59 | 30 to 100 | 65 | MTD [2]: 40 mg/kg; IC50 [21]: 56 nM |
| COc1cc2nccc(Oc3ccc(NC(=O)NC4CC4)c(Cl)c3F)c2cc1C(N)=O [Ref-2, reference compound] | – | – | – | – | > 1000 nM | 0.42 | – | – | – | 15400 | – | – | 6.4 | – | – | – | 8.6 | – | – | 39 | – |
| CNC(=O)c1cc(Oc2ccc(NC(=O)Nc3ccc(Cl)c(C(F)(F)F)c3)c(F)c2)ccn1 [Regorafenib, reference compound] | – | > 100 | > 1000 | > 100 | > 1000 nM | – | 0.2 to 1 | – | – | – | – | > 10 | – | > 500 | – | – | – | 62 | > 100 | > 500 | – |

— US12071408B2, “Multi-targeted tyrosine kinase inhibitors effective in antitumor uses” (Shanghai AB PharmaTech Ltd., priority 2021, dated 2024)
